The subject of data set [1] is non-melanoma skin cancers. The settings on record: cited from earlier work.
Data set [2] is described as follows: Verteporfin PDT in patients, physician visual grading of cosmetic outcome of treated sites (color, profile, texture). In kind it is in vivo, human. The conditions noted are these: 14 mg/m^2 BPD-MA IV. As for the experimental part:
(§1) Visudyne^1 was diluted to 30 ml with 5% dextrose in water. This solution was then administered intravenously by a ten minute infusion to fifty-four patients having multiple non-melanoma skin tumors. The final concentration of BPD-MA administered was 14 mg per m^2 of body surface area. The body surface area was calculated by taking the square root of the […] of (height (cm)×weight (kg))÷3600. ^1 available from Movartis Opthalmics, Duluth, Ga. 30097, USA.
(§2) One to three hours after the start of drug infusion the patients either had their tumors treated with a light dose of 60 or 120 J/cm^2 (as comparative examples) or with a light dose of 180 J/cm^2 according to the invention. The light doses were all of red (688 nm) LED light with a fluence rate of 200 mW/cm^2. A total of 421 tumors were treated. 194 received 60 J/cm^2, 117 received 120 J/cm^2, and 110 received 180 J/cm^2.
(§3) The efficacy of the treatment and the cosmetic outcome were assessed at 6 months and 24 months from the start of treatment. As a measure of efficacy, each treatment site was visually assessed by a physician to see if it was tumor free. The percentage of treatment sites that were judged to be free of tumors is shown in Table 1 (Clinical Complete Response). The treatment sites were also visually graded by the physician to assess the Cosmetic Outcome. Each tumor site was graded as an excellent, good, satisfactory, or less than satisfactory based on the color, profile, and texture of each treated site.

Data set [3] concerns multiple non-melanoma skin tumors. In words: Verteporfin PDT in patients, visual assessment of treatment sites for clinical complete response (tumor free). In kind it is in vivo, human. The settings on record: for Clinical Complete Response (percentage of treatment sites judged free of tumors): 14 mg/m^2 BPD-MA IV. The procedure:
as §1, §2
Tumors were examined for clinical response after 3 months.
as §3

Where [4] appears, read: 6 months, light dose 60 J/cm^2 (comparative), 688 nm.
Setting [5] is: 6 months, light dose 120 J/cm^2 (comparative), 688 nm.
[6] abbreviates: 6 months, light dose 180 J/cm^2, 688 nm.
Setting [7] is: 24 months, light dose 60 J/cm^2 (comparative), 688 nm.
The mark [8] stands for this setting: 24 months, light dose 120 J/cm^2 (comparative), 688 nm.
[9] abbreviates: 24 months, light dose 180 J/cm^2, 688 nm.

“benzoporphyrin derivative monoacid A ring [Visudyne]”: the Clinical response entry in data set [1] (60 J/cm^2) was “relatively poor clinical response”. Moreover, the Cosmetic outcome in data set [1] (180 J/cm^2) is “relatively poor cosmetic outcome”. The “Cosmetic results with tumor clearing” value in data set [1] (light fluence 120 J/cm^2) was “good to excellent”. Besides, the “Tumor Cosmetic Outcome (percentage of treatment sites judged satisfactory or better)” value in data set [2] (setting [4]) stood at 90.6%; in data set [2] (setting [5]), 87.5%; in data set [2] (setting [6]) it was 64.8%; in data set [2] (setting [7]), 91.8%; in data set [2] (setting [8]), 76.4%; in data set [2] (setting [9]) it was 85.5%. The “Clinical response of tumors” value in data set [3] (3 months, tumors on six patients of the comparative 60 J/cm^2 group) was “no response”. The “Clinical Complete Response (percentage of treatment sites judged free of tumors)” value in data set [3] (setting [4]) was 78.3%; in data set [3] (setting [5]), 88.5%; in data set [3] (setting [6]) it was 98.0%; in data set [3] (setting [7]), 51.3%; in data set [3] (setting [8]), 78.6%; in data set [3] (setting [9]), 95.4%.

(Values after patent US20040110731A1, “Photodynamic therapy for the treatment of non-melanoma skin cancer” (priority 2002, published 2004).)
